What was measured:
Type in all cases: in vivo
Spodoptera littoralis = Spodoptera littoralis (Egyptian cotton leafworm) cotton leaf disc test; details: foliar, 72 h, 200 ppm sprayed on cotton leaf discs, mortality, feeding behavior, growth regulation 3 days after treatment
Protocol: Spodoptera littoralis (Egyptian Cotton Leafworm): Cotton leaf discs were placed on agar in a 24-well microtiter plate and sprayed with test solutions at an application rate of 200 ppm. After drying, the leaf discs were infested with […]. The samples were checked for mortality, feeding behavior, and growth regulation 3 days after treatment (DAT).

Heliothis virescens = Heliothis virescens (tobacco budworm) egg test on artificial diet; details: 96 h, 200 ppm (concentration in well 18 ppm), eggs on artificial diet, egg mortality, larval mortality, growth regulation after 4 days
Protocol: Heliothis virescens (Tobacco Budworm): Eggs (0-24 h old) were placed in 24-well microtiter plate on artificial diet and treated with test solutions at an application rate of 200 ppm (concentration in well 18 ppm) by pipetting. After an incubation period of 4 days, samples were checked for egg mortality, larval mortality, and growth regulation.

Plutella xylostella = Plutella xylostella (diamond back moth) artificial diet test; details: 144 h, 200 ppm (concentration in well 18 ppm), L2 larvae, larval mortality and growth regulation after 6 days
Protocol: (§1) Plutella xylostella (Diamond Back Moth): 24-well microtiter plate (MTP) with artificial diet was treated with test solutions at an application rate of 200 ppm (concentration in well 18 ppm) by pipetting. After drying, the MTPs were infested with L2 larvae (7-12 per well). After an incubation period of 6 days, samples were checked for larval mortality and growth regulation.

Diabrotica balteata = Diabrotica balteata (corn root worm) artificial diet test; details: 120 h, 200 ppm (concentration in well 18 ppm), L2 larvae, larval mortality and growth regulation after 5 days
Protocol: as §1, with “Diabrotica balteata (Corn Root Worm): A” for “Plutella xylostella (Diamond Back Moth):”, “(6-10” for “(7-12”, “5” for “6”

Thrips tabaci = Thrips tabaci (onion thrips) sunflower leaf disc test; details: foliar, 168 h, 200 ppm sprayed on sunflower leaf discs, mixed ages, mortality after 7 days
Protocol: Thrips tabaci (Onion Thrips): Sunflower leaf discs were placed on agar in a 24-well microtiter plate and sprayed with test solutions at an application rate of 200 ppm. After drying, the leaf discs were infested with a thrips population of mixed ages. After an incubation period of 7 days, samples were checked for mortality.

Tetranychus urticae = Tetranychus urticae (two-spotted spider mite) bean leaf disc test; details: foliar, 192 h, 200 ppm sprayed on bean leaf discs, mixed ages, egg, larval and adult mortality 8 days later
Text: Tetranychus urticae (Two-Spotted Spider Mite): Bean leaf discs on agar in 24-well microtiter plates were sprayed with test solutions at an application rate of 200 ppm. After drying, the leaf discs are infested with mite populations of mixed ages. 8 days later, discs are checked for egg mortality, larval mortality, and adult mortality.

Measured: pest or weed control at 200 ppm

Cc1cc(C2=NSC(c3cc(Cl)cc(Cl)c3)(C(F)(F)F)C2)ccc1C(=O)NCC(F)(F)F (stereo not shown) [Compound A03]
≥ 80%: all assays above

CCNC(=O)c1ccc(C2=NSC(c3cc(Cl)cc(Cl)c3)(C(F)(F)F)C2)cc1C (stereo not shown) [Compound A04]
≥ 80%: all assays above

CCCCNC(=O)c1ccc(C2=NSC(c3cc(Cl)cc(Cl)c3)(C(F)(F)F)C2)cc1C (stereo not shown) [Compound A05]
≥ 80%: all assays above

COCC(C)NC(=O)c1ccc(C2=NSC(c3cc(Cl)cc(Cl)c3)(C(F)(F)F)C2)cc1C (stereo not shown) [Compound A06]
≥ 80%: all assays above

Cc1cc(C2=NSC(c3cc(Cl)cc(Cl)c3)(C(F)(F)F)C2)ccc1C(=O)NCCC(F)(F)F (stereo not shown) [Compound A07]
≥ 80%: all assays above

CCC(C)NC(=O)c1ccc(C2=NSC(c3cc(Cl)cc(Cl)c3)(C(F)(F)F)C2)cc1C (stereo not shown) [Compound A08]
≥ 80%: all assays above

Cc1cc(C2=NSC(c3cc(Cl)cc(Cl)c3)(C(F)(F)F)C2)ccc1C(=O)NCC1CCCO1 (stereo not shown) [Compound A09]
≥ 80%: all assays above

Cc1cc(C2=NSC(c3cc(Cl)cc(Cl)c3)(C(F)(F)F)C2)ccc1C(=O)NCc1ccccc1 (stereo not shown) [Compound A10]
≥ 80%: all assays above

Cc1cc(C2=NSC(c3cc(Cl)cc(Cl)c3)(C(F)(F)F)C2)ccc1C(=O)NCc1ccccc1F (stereo not shown) [Compound A11]
≥ 80%: all assays above

COc1ccc(CNC(=O)c2ccc(C3=NSC(c4cc(Cl)cc(Cl)c4)(C(F)(F)F)C3)cc2C)cc1 (stereo not shown) [Compound A13]
≥ 80%: all assays above

Cc1cc(C2=NSC(c3cc(Cl)cc(Cl)c3)(C(F)(F)F)C2)ccc1C(=O)NCc1ccc(Cl)nc1 (stereo not shown) [Compound A14]
≥ 80%: all assays above

Cc1cc(C2=NSC(c3cc(Cl)cc(Cl)c3)(C(F)(F)F)C2)ccc1C(=O)Nc1cccc(F)c1 (stereo not shown) [Compound A15]
≥ 80%: all assays above

Cc1cc(NC(=O)c2ccc(C3=NSC(c4cc(Cl)cc(Cl)c4)(C(F)(F)F)C3)cc2C)n(C)n1 (stereo not shown) [Compound A17]
≥ 80%: all assays above

Cc1csc(NC(=O)c2ccc(C3=NSC(c4cc(Cl)cc(Cl)c4)(C(F)(F)F)C3)cc2C)n1 (stereo not shown) [Compound A18]
≥ 80%: all assays above

Cc1cc(C2=NSC(c3cc(Cl)cc(Cl)c3)(C(F)(F)F)C2)ccc1C(=O)NC1(C)CSC1 (stereo not shown) [Compound A19]
≥ 80%: all assays above

CSCC(C)(C)NC(=O)c1ccc(C2=NSC(c3cc(Cl)cc(Cl)c3)(C(F)(F)F)C2)cc1C (stereo not shown) [Compound A20]
not listed: Thrips tabaci
≥ 80%: all other assays above

Cc1cc(C2=NSC(c3cc(Cl)cc(Cl)c3)(C(F)(F)F)C2)ccc1C(=O)NC1C[S+]([O-])C1 (stereo not shown) [Compound A21]
≥ 80%: all assays above

Cc1cc(C2=NSC(c3cc(Cl)cc(Cl)c3)(C(F)(F)F)C2)ccc1C(=O)NC1CCSC1=O (stereo not shown) [Compound A37]
not listed: Thrips tabaci
≥ 80%: all other assays above

Cc1cc(C2=NSC(c3cc(Cl)cc(Cl)c3)(C(F)(F)F)C2)ccc1C(=O)Nc1cc[n+]([O-])cc1 (stereo not shown) [Compound A41]
≥ 80%: Spodoptera littoralis | Heliothis virescens | Plutella xylostella

Cc1cc(C2=NSC(c3cc(Cl)cc(Cl)c3)(C(F)(F)F)C2)ccc1C(=O)NC1=NCCS1 (stereo not shown) [Compound A44]
≥ 80%: Spodoptera littoralis | Heliothis virescens | Plutella xylostella | Diabrotica balteata

Cc1cc(C)nc(NC(=O)c2ccc(C3=NSC(c4cc(Cl)cc(Cl)c4)(C(F)(F)F)C3)cc2C)n1 (stereo not shown) [Compound A47]
≥ 80%: Spodoptera littoralis

CCN(CC)C(=O)c1cccc(NC(=O)c2ccc(C3=NSC(c4cc(Cl)cc(Cl)c4)(C(F)(F)F)C3)cc2C)n1 (stereo not shown) [Compound A49]
not listed: Thrips tabaci
≥ 80%: all other assays above

Cc1cc(C2=NSC(c3cc(Cl)cc(Cl)c3)(C(F)(F)F)C2)ccc1C(=O)Nc1ccccn1 (stereo not shown) [Compound A56]
not listed: Tetranychus urticae
≥ 80%: all other assays above

Cc1cc(C2=NSC(c3cc(Cl)cc(Cl)c3)(C(F)(F)F)C2)ccc1C(=O)NCc1ccc(C(F)(F)F)cc1 (stereo not shown) [Compound A57]
not listed: Thrips tabaci
≥ 80%: all other assays above

Cc1cc(C2=NSC(c3cc(Cl)cc(Cl)c3)(C(F)(F)F)C2)ccc1C(=O)Nc1ccc(C(F)(F)F)cc1 (stereo not shown) [Compound A58]
not listed: Tetranychus urticae
≥ 80%: all other assays above

Cc1ccc(NC(=O)c2ccc(C3=NSC(c4cc(Cl)cc(Cl)c4)(C(F)(F)F)C3)cc2C)cc1 (stereo not shown) [Compound A64]
not listed: Tetranychus urticae
≥ 80%: all other assays above
